What was measured:
[1] = biological target: T1, Nuclear factor erythroid 2-related factor 2 (Homo sapiens) (UniProt Q16236); experiment: Activation of Nrf2 in human HepG2 cells at 80 uM incubated for 12 hrs by ARE-driven luciferase reporter gene assay relative to control; type: cell-based
T1 sequence (whole entry): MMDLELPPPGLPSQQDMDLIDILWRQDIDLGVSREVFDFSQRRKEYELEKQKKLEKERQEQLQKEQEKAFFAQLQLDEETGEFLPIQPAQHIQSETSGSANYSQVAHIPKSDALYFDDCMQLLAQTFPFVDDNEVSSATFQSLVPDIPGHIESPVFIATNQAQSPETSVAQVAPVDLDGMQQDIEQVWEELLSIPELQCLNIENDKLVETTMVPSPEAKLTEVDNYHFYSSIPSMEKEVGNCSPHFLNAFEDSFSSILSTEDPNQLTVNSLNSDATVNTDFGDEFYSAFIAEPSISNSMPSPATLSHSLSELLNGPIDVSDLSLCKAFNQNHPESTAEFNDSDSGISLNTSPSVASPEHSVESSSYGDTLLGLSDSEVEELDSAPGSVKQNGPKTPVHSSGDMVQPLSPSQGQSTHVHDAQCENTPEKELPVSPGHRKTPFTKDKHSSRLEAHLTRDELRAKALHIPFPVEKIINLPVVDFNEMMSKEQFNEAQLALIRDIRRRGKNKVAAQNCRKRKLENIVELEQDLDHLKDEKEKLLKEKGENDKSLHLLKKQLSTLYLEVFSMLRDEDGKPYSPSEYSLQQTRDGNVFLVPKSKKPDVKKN

[2] = biological target: T1, Nuclear factor erythroid 2-related factor 2 (Homo sapiens); experiment: Activation of Nrf2 in human HepG2 cells at 160 uM incubated for 12 hrs by ARE-driven luciferase reporter gene assay relative to control; type: cell-based
[3] = biological target: T1, Nuclear factor erythroid 2-related factor 2 (Homo sapiens); experiment: Activation of Nrf2 in human HepG2 cells incubated for 12 hrs by ARE-driven luciferase reporter gene assay relative to control; type: cell-based
[4] = Cytotoxicity against human HCT116 cells assessed as cell viability after 24 hrs by MTT assay; type: cell-based; details: hct-116, 24 h
[5] = biological target: T1, Nuclear factor erythroid 2-related factor 2 (Homo sapiens); experiment: Induction of Nrf2 translocation into nucleus in human NCM460 cells after 12 hrs by DAPI staining-based laser scanning confocal microscopic analysis; type: cell-based
[6] = biological target: T1, Nuclear factor erythroid 2-related factor 2 (Homo sapiens); experiment: Induction of Nrf2 translocation into nucleus in human L02 cells after 12 hrs by DAPI staining-based laser scanning confocal microscopic analysis; type: cell-based
[7] = Cytotoxicity against human L02 cells assessed as cell viability at 160 uM after 24 hrs by MTT assay relative to control; type: cell-based; details: read-out: Activity
[8] = Cytotoxicity against human NCM460 cells assessed as cell viability at 160 uM after 24 hrs by MTT assay relative to control; type: cell-based; details: read-out: Activity
[9] = Cytotoxicity against rat PC12 cells assessed as cell viability at 160 uM after 24 hrs by MTT assay relative to control; type: cell-based, PC-12; details: read-out: Activity
[10] = Cytotoxicity against human L02 cells assessed as cell viability at low to medium concentration after 24 hrs by MTT assay relative to control; type: cell-based; details: l02, 24 h
[11] = Cytotoxicity against human NCM460 cells assessed as cell viability at low to medium concentration after 24 hrs by MTT assay relative to control; type: cell-based; details: ncm460, 24 h
[12] = Cytotoxicity against rat PC12 cells assessed as cell viability at low to medium concentration after 24 hrs by MTT assay relative to control; type: cell-based; details: pc-12, 24 h
[13] = Cytotoxicity against human L02 cells assessed as cell viability at 20 uM after 24 hrs by MTT assay relative to control; type: cell-based; details: l02, 24 h
[14] = Cytotoxicity against human NCM460 cells assessed as cell viability at 20 uM after 24 hrs by MTT assay relative to control; type: cell-based; details: ncm460, 24 h
[15] = Cytotoxicity against rat PC12 cells assessed as cell viability at 20 uM after 24 hrs by MTT assay relative to control; type: cell-based; details: pc-12, 24 h
[16] = Cytoprotective activity against H2O2-induced cytotoxicity in human L02 cells assessed as cell viability pretreated at 20 uM for 24 hrs followed by H2O2 challenge for 12 hrs by MTT assay (reference value: 50%); type: functional; details: read-out: Activity
[17] = Cytoprotective activity against H2O2-induced cytotoxicity in human NCM460 cells assessed as cell viability pretreated at 20 uM for 24 hrs followed by H2O2 challenge for 12 hrs by MTT assay (reference value: 50%); type: functional; details: read-out: Activity
[18] = Cytoprotective activity against H2O2-induced cytotoxicity in rat PC12 cells assessed as cell viability pretreated at 20 uM for 24 hrs followed by H2O2 challenge for 12 hrs by MTT assay (reference value: 50%); type: functional; details: PC-12, read-out: Activity
[19] = biological target: T1, Nuclear factor erythroid 2-related factor 2 (Homo sapiens); experiment: Activation of Nrf2 expression in human HCT116 cells after 8 hrs by western blot analysis; type: cell-based; details: HCT-116
[20] = biological target: T1, Nuclear factor erythroid 2-related factor 2 (Homo sapiens); experiment: Induction of Nrf2 translocation from cytoplasm to nucleus in human HCT116 cells at 20 uM by western blot analysis; type: cell-based; details: HCT-116, TDE = time-dependent effect
[21] = biological target: T1, Nuclear factor erythroid 2-related factor 2 (Homo sapiens); experiment: Activation of Nrf2 in human HCT116 cells assessed as upregulation of gamma-GCS after 8 hrs by western blot analysis; type: cell-based; details: HCT-116
[22] = biological target: T1, Nuclear factor erythroid 2-related factor 2 (Homo sapiens); experiment: Activation of Nrf2 in human HCT116 cells assessed as upregulation of NQO1 after 8 hrs by western blot analysis; type: cell-based; details: HCT-116
[23] = biological target: T1, Nuclear factor erythroid 2-related factor 2 (Homo sapiens); experiment: Activation of Nrf2 in human HCT116 cells assessed as upregulation of HO-1 after 8 hrs by western blot analysis; type: cell-based; details: HCT-116
[24] = biological target: T2, Nuclear factor erythroid 2-related factor 2 (Rattus norvegicus) (UniProt O54968); experiment: Induction of Nrf2 translocation into nucleus in rat PC12 cells after 12 hrs by DAPI staining-based laser scanning confocal microscopic analysis; type: cell-based; details: PC-12
T2 sequence (whole entry): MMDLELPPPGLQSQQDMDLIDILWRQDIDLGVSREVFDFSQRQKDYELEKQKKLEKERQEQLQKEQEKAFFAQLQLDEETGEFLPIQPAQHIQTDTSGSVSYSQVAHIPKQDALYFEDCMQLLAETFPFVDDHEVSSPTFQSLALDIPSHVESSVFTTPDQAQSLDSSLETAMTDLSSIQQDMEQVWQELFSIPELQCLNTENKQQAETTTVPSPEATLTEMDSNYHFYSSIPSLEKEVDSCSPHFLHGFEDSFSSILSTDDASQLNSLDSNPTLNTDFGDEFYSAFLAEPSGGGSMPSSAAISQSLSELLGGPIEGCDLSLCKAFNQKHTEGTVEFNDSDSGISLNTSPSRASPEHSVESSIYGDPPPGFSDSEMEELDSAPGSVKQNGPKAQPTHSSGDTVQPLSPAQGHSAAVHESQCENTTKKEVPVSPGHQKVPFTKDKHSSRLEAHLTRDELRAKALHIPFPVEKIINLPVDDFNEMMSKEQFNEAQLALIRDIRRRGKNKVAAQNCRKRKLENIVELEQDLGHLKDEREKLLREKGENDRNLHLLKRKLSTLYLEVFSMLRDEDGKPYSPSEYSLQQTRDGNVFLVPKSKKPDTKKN

[25] = biological target: T1, Nuclear factor erythroid 2-related factor 2 (Homo sapiens); experiment: Activation of Nrf2 in human HepG2 cells at 5 uM incubated for 12 hrs by ARE-driven luciferase reporter gene assay relative to control; type: cell-based
[26] = biological target: T1, Nuclear factor erythroid 2-related factor 2 (Homo sapiens); experiment: Activation of Nrf2 in human HepG2 cells at 20 uM incubated for 12 hrs by ARE-driven luciferase reporter gene assay relative to control; type: cell-based
[27] = biological target: T1, Nuclear factor erythroid 2-related factor 2 (Homo sapiens); experiment: Activation of Nrf2 in human HepG2 cells at 0.02 uM incubated for 12 hrs by ARE-driven luciferase reporter gene assay relative to control; type: cell-based
[28] = biological target: T1, Nuclear factor erythroid 2-related factor 2 (Homo sapiens); experiment: Activation of Nrf2 in human HepG2 cells at 0.2 uM incubated for 12 hrs by ARE-driven luciferase reporter gene assay relative to control; type: cell-based
[29] = biological target: T1, Nuclear factor erythroid 2-related factor 2 (Homo sapiens); experiment: Activation of Nrf2 in human HepG2 cells at 2 uM incubated for 12 hrs by ARE-driven luciferase reporter gene assay relative to control; type: cell-based
[30] = biological target: T1, Nuclear factor erythroid 2-related factor 2 (Homo sapiens); experiment: Activation of Nrf2 in human HepG2 cells at 40 uM incubated for 12 hrs by ARE-driven luciferase reporter gene assay relative to control; type: cell-based

Q: For Cc1nc2cc(-c3noc(-c4cnccn4)n3)ccc2o1, which fold change (FC) [1] is on record?
A: 17.1

Q: And the fold change (FC) [2]?
A: 15.3

Q: And the Activity [3]?
A: Dose-dependent effect

Q: What about the Activity [4] of the same compound?
A: Non-toxic

Q: And the Activity [5]?
A: Dose-dependent effect

Q: And the Activity [6]?
A: Dose-dependent effect

Q: And the viability at 24 h, 160 µM [7]?
A: 80%

Q: What about the viability at 24 h, 160 µM [8] of the same compound?
A: 80%

Q: And the viability at 24 h, 160 µM [9]?
A: 80%

Q: And the Activity [10]?
A: Non-toxic

Q: What about the Activity [11] of the same compound?
A: Non-toxic

Q: What about the Activity [12] of the same compound?
A: Non-toxic

Q: And the Activity [13]?
A: Non-toxic

Q: And the Activity [14]?
A: Non-toxic

Q: What about the Activity [15] of the same compound?
A: Non-toxic

Q: And the viability at 20 µM [16]?
A: 85%

Q: And the viability at 20 µM [17]?
A: 90%

Q: What about the viability at 20 µM [18] of the same compound?
A: 80%

Q: What about the Activity [19] of the same compound?
A: Dose-dependent effect

Q: And the Activity [20]?
A: tde

Q: And the Activity [21]?
A: Dose-dependent effect

Q: And the Activity [22]?
A: Dose-dependent effect

Q: And the Activity [23]?
A: Dose-dependent effect

Q: What about the Activity [24] of the same compound?
A: Dose-dependent effect

Q: What about the fold change (FC) [25] of the same compound?
A: 6.85

Q: What about the fold change (FC) [26] of the same compound?
A: 9.57

Q: And the fold change (FC) [27]?
A: 3.42

Q: What about the fold change (FC) [28] of the same compound?
A: 4.98

Q: And the fold change (FC) [29]?
A: 4.67

Q: And the fold change (FC) [30]?
A: 15.5

From ChEMBL document CHEMBL3813628, “Molecular similarity guided optimization of novel Nrf2 activators with 1,2,4-oxadiazole core” (Bioorg Med Chem, 2016)
